Patent publication US7517874B2 (priority 2007, dated 2009)
Read-outs that look alike come from different tables or passages of the source.

Assays:
[1] = target: human CB1 receptor (hCB1) (Homo sapiens, UniProt P21554); assay: cell-based; type: cell-based
Method in brief: (§1)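 Readout: LANCE TR-FRET cAMP, back-calculated from a concurrent standard curve and scaled between forskolin-only and forskolin + 1 μM CP55,940 wells. EC50 and intrinsic activity came from four-parameter fits.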

[2] = target: T1, rat CB2 receptor (rCB2) (Rattus norvegicus, UniProt Q9QZN9); assay: cell-based; type: cell-based; details: for +/− RCB2: agonist or inverse agonist at rCB2
T1 sequence (Q9QZN9 1-360): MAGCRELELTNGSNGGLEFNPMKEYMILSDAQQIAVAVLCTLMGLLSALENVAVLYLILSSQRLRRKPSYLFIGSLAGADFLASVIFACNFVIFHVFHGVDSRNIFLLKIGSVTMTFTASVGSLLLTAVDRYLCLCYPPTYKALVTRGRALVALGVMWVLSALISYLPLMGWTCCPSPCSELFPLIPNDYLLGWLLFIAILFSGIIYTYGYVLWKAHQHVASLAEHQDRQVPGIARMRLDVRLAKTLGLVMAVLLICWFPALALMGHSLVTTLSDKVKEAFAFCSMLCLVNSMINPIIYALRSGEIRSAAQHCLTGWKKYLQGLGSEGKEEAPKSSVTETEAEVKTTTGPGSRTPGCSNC
Method in brief: as §1

[3] = groups >100 nM-10 μM and >10 μM, cAMP, CHO-K1 hCB1, read-out: EC50 HCB1
[4] = groups >100 nM-10 μM and >10 μM, cAMP, CHO-K1 rCB2, read-out: EC50 RCB2

human CB1 receptor (hCB1), sequence (P21554 whole entry): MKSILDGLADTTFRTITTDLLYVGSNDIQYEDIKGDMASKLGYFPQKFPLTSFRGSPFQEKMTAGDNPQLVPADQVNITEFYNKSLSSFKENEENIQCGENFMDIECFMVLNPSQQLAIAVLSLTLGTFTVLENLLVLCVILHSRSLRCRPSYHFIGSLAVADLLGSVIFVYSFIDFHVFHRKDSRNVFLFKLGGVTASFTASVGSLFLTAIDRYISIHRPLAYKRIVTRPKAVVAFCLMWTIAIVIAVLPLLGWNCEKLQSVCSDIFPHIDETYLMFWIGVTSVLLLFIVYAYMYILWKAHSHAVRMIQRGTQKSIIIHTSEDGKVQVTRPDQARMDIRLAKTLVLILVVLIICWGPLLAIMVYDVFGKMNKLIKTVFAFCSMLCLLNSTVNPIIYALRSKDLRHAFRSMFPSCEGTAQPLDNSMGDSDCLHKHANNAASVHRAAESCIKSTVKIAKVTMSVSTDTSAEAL

Compound: COC(=O)N1CCn2c(-c3ccccc3)nc(C(=O)NC3CCCCC3)c2C1 [Compound 187, methyl 1-(cyclohexylcarbamoyl)-3-phenyl-5,6-dihydroimidazo[1,5-a]pyrazine-7(8H)-carboxylate]
- EC50 [1, 3]: > 10000 nM
- +/− RCB2 [2]: −

Compound: CNC(=O)[C@@H](NC(=O)c1nc(-c2ccccc2)n2c1CN(C(=O)CC(C)(C)C)CC2)C(C)(C)C [Compound 188, (S)-N-(3,3-dimethyl-1-(methylamino)-1-oxobutan-2-yl)-7-(3,3-dimethylbutanoyl)-3-phenyl-5,6,7,8-tetrahydroimidazo[1,5-a]pyrazine-1-carboxamide]
- EC50 [1]: > 10000 nM
- +/− RCB2 [2]: −

Compound: CCC(=O)N1CCn2c(-c3ccccc3)nc(C(=O)N[C@H](C(=O)NC)C(C)(C)C)c2C1 [Compound 189, (S)-N-(3,3-dimethyl-1-(methylamino)-1-oxobutan-2-yl)-3-phenyl-7-propionyl-5,6,7,8-tetrahydroimidazo[1,5-a]pyrazine-1-carboxamide]
- EC50 [1]: > 10000 nM
- +/− RCB2 [2]: +

Compound: CNC(=O)[C@@H](NC(=O)c1nc(-c2ccccc2)n2c1CN(C(=O)C(C)(C)C)CC2)C(C)(C)C [Compound 190, (S)-N-(3,3-dimethyl-1-(methylamino)-1-oxobutan-2-yl)-3-phenyl-7-pivaloyl-5,6,7,8-tetrahydroimidazo[1,5-a]pyrazine-1-carboxamide]
- EC50 [1]: > 10000 nM
- +/− RCB2 [2]: −

Compound: CNC(=O)[C@@H](NC(=O)c1nc(-c2ccccc2)n2c1CN(C(=O)C(C)C)CC2)C(C)(C)C [Compound 191, (S)-N-(3,3-dimethyl-1-(methylamino)-1-oxobutan-2-yl)-7-isobutyryl-3-phenyl-5,6,7,8-tetrahydroimidazo[1,5-a]pyrazine-1-carboxamide]
- EC50 [1]: > 10000 nM
- +/− RCB2 [2]: −

Compound: CNC(=O)[C@@H](NC(=O)c1nc(-c2ccccc2)n2c1CN(C(=O)NC(C)(C)C)CC2)C(C)(C)C [Compound 192, (S)-N7-tert-butyl-N1-(3,3-dimethyl-1-(methylamino)-1-oxobutan-2-yl)-3-phenyl-5,6-dihydroimidazo[1,5-a]pyrazine-1,7(8H)-dicarboxamide]
- EC50 [1]: > 10000 nM
- +/− RCB2 [2]: −

Compound: CCCNC(=O)N1CCn2c(-c3ccccc3)nc(C(=O)N[C@H](C(=O)NC)C(C)(C)C)c2C1 [Compound 193, (S)-N1-(3,3-dimethyl-1-(methylamino)-1-oxobutan-2-yl)-3-phenyl-N7-propyl-5,6-dihydroimidazo[1,5-a]pyrazine-1,7(8H)-dicarboxamide]
- EC50 [1]: > 10000 nM
- +/− RCB2 [2]: −

Compound: CNC(=O)[C@@H](NC(=O)c1nc(-c2ccccc2)n2c1CN(C(=O)Nc1ccccc1)CC2)C(C)(C)C [Compound 194, (S)-N1-(3,3-dimethyl-1-(methylamino)-1-oxobutan-2-yl)-N7,3-diphenyl-5,6-dihydroimidazo[1,5-a]pyrazine1,7-(8H)-dicarboxamide]
- EC50 [1]: > 10000 nM
- EC50 [2]: > 10000 nM

Compound: CCCNC(=S)N1CCn2c(-c3ccccc3)nc(C(=O)N[C@H](C(=O)NC)C(C)(C)C)c2C1 [Compound 195, (S)-N-(3,3-dimethyl-1-(methylamino)-1-oxobutan-2-yl)-3-phenyl-7-(propylcarbamothioyl)-5,6,7,8-tetrahydroimidazo[1,5-a]pyrazine-1-carboxamide]
- EC50 [1]: > 10000 nM
- +/− RCB2 [2]: −

Compound: CN(C)C(=O)[C@@H](NC(=O)c1nc(-c2ccccc2)n2c1CNCC2)C(C)(C)C [Compound 196, (S)-N-(1-(dimethylamino)-3,3-dimethyl-1-oxobutan-2-yl)-3-phenyl-5,6,7,8-tetrahydroimidazo[1,5-a]pyrazine-1-carboxamide]
- EC50 [1]: > 10000 nM
- +/− RCB2 [2]: −

Compound: CNC(=O)[C@@H](NC(=O)c1nc(-c2ccccc2)n2c1CN(C1CC1)CC2)C(C)(C)C [Compound 197, (S)-7-cyclopropyl-N-(3,3-dimethyl-1-(methylamino)-1-oxobutan-2-yl)-3-phenyl-5,6,7,8-tetrahydroimidazo[1,5-a]pyrazine-1-carboxamide]
- EC50 [1]: > 10000 nM
- +/− RCB2 [2]: −

Compound: Cc1noc([C@@H](NC(=O)c2nc(-c3ccccc3)n3c2CN(C2CC2)CC3)C(C)(C)C)n1 [Compound 198, (S)-7-cyclopropyl-N-(2,2-dimethyl-1-(3-methyl-1,2,4-oxadiazol-5-yl)propyl)-3-phenyl--5,6,7,8-tetrahydroimidazo[1,5-a]pyrazine-1-carboxamide]
- EC50 [1]: > 10000 nM
- +/− RCB2 [2]: −

Compound: CNC(=O)[C@@H](NC(=O)c1nc(-c2ccccc2)n2c1CN(C1CC1)CCC2)C(C)(C)C [Compound 199, (S)-8-cyclopropyl-N-(3,3-dimethyl-1-(methylamino)-1-oxobutan-2-yl)-3-phenyl-6,7,8,9-tetrahydro-5H-imidazo[1,5-a][1,4]diazepine-1-carboxamide]
- EC50 [1]: > 10000 nM
- +/− RCB2 [2]: +

Compound: Cc1nnc([C@@H](NC(=O)c2nc(-c3ccccc3)n3c2CNCC3)C(C)(C)C)o1 [Compound 200, (S)-N-(2,2-dimethyl-1-(5-methyl-1,3,4-oxadiazol-2-yl)propyl)-3-phenyl-5,6,7,8-tetrahydroimidazo[1,5-a]pyrazine-1-carboxamide]
- EC50 [1]: > 10000 nM
- +/− RCB2 [2]: +

Compound: Cc1nnc([C@@H](NC(=O)c2nc(-c3ccccc3)n3c2CN(C)CC3)C(C)(C)C)o1 [Compound 201, (S)-N-(2,2-dimethyl-1-(5-methyl-1,3,4-oxadiazol-2-yl)propyl)-7-methyl-3-phenyl-5,6,7,8-tetrahydroimidazo[1,5-a]pyrazine-1-carboxamide]
- EC50 [1]: > 10000 nM
- +/− RCB2 [2]: +

Compound: Cc1nnc([C@@H](NC(=O)c2nc(-c3ccccc3)n3c2CN(CC(C)C)CC3)C(C)(C)C)o1 [Compound 202, (S)-N-(2,2-dimethyl-1-(5-methyl-1,3,4-oxadiazol-2-yl)propyl)-7-isobutyl-3-phenyl-5,6,7,8-tetrahydroimidazo[1,5-a]pyrazine-1-carboxamide]
- EC50 [1]: > 10000 nM
- +/− RCB2 [2]: −

Compound: CNC(=O)[C@@H](NC(=O)c1nc(C#Cc2ccccc2)n2c1CN(C)CC2)C(C)(C)C [Compound 204, (S)-N-(3,3-dimethyl-1-(methylamino)-1-oxobutan-2-yl)-7-methyl-3-(phenylethynyl)-5,6,7,8-tetrahydroimidazo[1,5-a]pyrazine-1-carboxamide]
- EC50 [1]: > 10000 nM
- EC50 [2]: > 10000 nM

Compound: CNC(=O)[C@@H](NC(=O)c1nc(C#Cc2cccnc2)n2c1CN(C)CC2)C(C)(C)C [Compound 205, (S)-N-(3,3-dimethyl-1-(methylamino)-1-oxobutan-2-yl)-7-methyl-3-(pyridin-3-ylethynyl)-5,6,7,8-tetrahydroimidazo[1,5-a]pyrazine-1-carboxamide]
- EC50 [1]: > 10000 nM
- EC50 [2]: > 10000 nM

Compound: CNC(=O)[C@@H](NC(=O)c1nc(-c2ccccc2)n2c1CN(C)CC2)C(C)C [Compound 206, (S)-7-methyl-N-(3-methyl-1-(methylamino)-1-oxobutan-2-yl)-3-phenyl-5,6,7,8-tetrahydroimidazo[1,5-a]pyrazine-1-carboxamide]
- EC50 [1]: > 10000 nM
- +/− RCB2 [2]: +

Compound: CNC(=O)[C@@H](NC(=O)c1nc(-c2ccccc2)n2c1CN(C)CC2)c1ccccc1 [Compound 207, (S)-7-methyl-N-(2-(methylamino)-2-oxo-1-phenylethyl)-3-phenyl-5,6,7,8-tetrahydroimidazo[1,5-a]pyrazine-1-carboxamide]
- EC50 [1]: > 10000 nM
- +/− RCB2 [2]: +

Compound: CN1CCn2c(-c3ccc(Cl)cc3F)nc(C(=O)Nc3ccc(S(N)(=O)=O)cc3)c2C1 [Compound 208, 3-(4-chloro-2-fluorophenyl)-7-methyl-N-(4-sulfamoylphenyl)-5,6,7,8-tetrahydroimidazo[1,5-a]pyrazine-1-carboxamide]
- EC50 [1]: > 10000 nM
- +/− RCB2 [2]: −

Compound: CN1CCn2c(-c3ccc(Cl)cc3F)nc(C(=O)NC3CCN(C(=O)OC(C)(C)C)CC3)c2C1 [Compound 209, tert-butyl 4-(3-(4-chloro-2-fluorophenyl)-7-methyl-5,6,7,8-tetrahydroimidazo[1,5-a]pyrazine-1-carboxamido)piperidine-1-carboxylate]
- EC50 [1]: > 10000 nM
- EC50 [2]: > 10000 nM

Compound: CN1CCn2c(-c3ccc(Cl)cc3F)nc(C(=O)N3CCN(C(=O)c4ccccc4)CC3)c2C1 [Compound 210, (4-benzoylpiperazin-1-yl)(3-(4-chloro-2-fluorophenyl)-7-methyl-5,6,7,8-tetrahydroimidazo[1,5-a]pyrazin-1-yl)methanone]
- EC50 [1, 3]: > 10000 nM
- EC50 [2, 4]: > 10000 nM

Compound: CN1CCn2c(-c3ccc(Cl)cc3F)nc(C(=O)N3CCN(c4ncccn4)CC3)c2C1 [Compound 211, (3-(4-chloro-2-fluorophenyl)-7-methyl-5,6,7,8-tetrahydroimidazo[1,5-a]pyrazin-1-yl)(4-(pyrimidin-2-yl)piperazin-1-yl)methanone]
- EC50 [1, 3]: > 10000 nM
- EC50 [2, 4]: > 10000 nM

Compound: CN1CCn2c(-c3ccc(Cl)cc3F)nc(C(=O)N3CCC(n4c(=O)[nH]c5cc(Cl)ccc54)CC3)c2C1 [Compound 212, 5-chloro-1-(1-(3-(4-chloro-2-fluorophenyl)-7-methyl-5,6,7,8-tetrahydroimidazo[1,5-a]pyrazine-1-carbonyl)piperidin-4-yl)-1H-benzo[d]imidazol-2(3H)-one]
- EC50 [1, 3]: > 10000 nM
- +/− RCB2 [2]: −
